Assay results from paper PMC8620685, “Effect of Selected Silyl Groups on the Anticancer Activity of 3,4-Dibromo-5-Hydroxy-Furan-2(5H)-One Derivatives” (Pharmaceuticals, 2021).
Where two headings read alike, the source gives them in different places.

Columns and labels:
HCT-116 cells = assay: Annexin V-FITC/PI apoptosis assay; format: cell-based, human
Experimental: To verify this thesis, we utilized annexin-V/PI double staining of cells, which were subsequently subjected to flow cytometric analysis.
The HCT 116 cells were seeded in 6-well plate (Nunc, ThermoFisher, Waltham, MA, USA) at a density of 5 × 10^4 cells/well and allowed to attach. After 24 h the medium was replaced with tested compounds. The cells were then incubated for 24 h at 37 °C. Next, both floating and adherent cells were harvested and centrifuged at 600× g. The cells were washed with PBS (phosphate buffered saline) (Sigma-Aldrich, Taufkirchen, Germany) and we followed instructions from the manufacturer of the Annexin V-FITC Apoptosis Detection Kit (Biotool, Jupiter, FL, USA). Fluorescence was measured using a Becton Dickinson FACS Aria III sorter (BD Company, San Diego, CA, USA). Experiments were repeated at least twice. Data were analyzed using FCE Express 7 Software (DeNovo Software, Pasadena, CA, USA).

SJSA-1 = assay: MTT assay, SJSA-1; format: cell-based; conditions: Homo sapiens, read-out: IC50 (cytotoxicity), SJSA-1
Experimental: (§1) The in vitro antitumor activities of the MBA and its derivatives (Table 2) were assayed against a panel of human cancer cell lines (HCT116, HCT-116 ^−/−p53, HT-29, MCF-7, SJSA-1, U2OS, HepG2 and Hep3B) using the MTT assay. As a reference drug we used 5-fluorouracil (5-FU). […] On the basis of in vitro antiproliferative activities, compounds 3b and 3c were selected for further mechanistic studies in the HCT-116 cell line.
(§2) Human cells lines: colon cancer (HCT-116 wt, HT-29), non-small lung carcinoma (A549), and bronchial epithelial cells (BEAS-2B) were obtained from American Type Culture Collection (ATCC, Manassas, VA, USA). Isogenic cell line HCT 116 p53^−/− (deleted both p53 alleles) were a gift from Dr. Bert Vogelstein. Other cell lines, namely MCF-7, SJSA-1, U2OS, HepG2, and Hep3B were received from the collection stored at Centre of Biotechnology of Silesian University of Technology. All cells were grown in DMEM with a high glucose medium (Sigma-Aldrich, Taufkirchen, Germany) supplemented with 10% (v/v) inactivated fetal bovine serum (FBS) (EURx, Gdańsk, Poland) and 1% antibiotics (10,000 μg/mL of streptomycin and 10,000 units/ml of penicillin) (Sigma-Aldrich, Taufkirchen, Germany) at 37 °C in humidified 5% CO2. The maximum concentration of DMSO in the culture media was 0.4%.
(§3) 5 × 10^3 cells per well for the MCF-7 cell line and 2.5 × 10^3 cells per well for the other cell lines were seeded in 96-well plates to adhere for 24 h. Afterward, the cells were treated with tested compounds. After 72 hours of incubation, 50 μL 0.5 mg/ml solution of MTT (3-(4,5-dimethylthiazol-2-yl)-2,5-diphenyl-2H-tetrazolium bromide) were added to each well and the plates were incubated for 3 h at 37 °C. Next, the MTT solution was removed from the plates and formed formazan crystals were dissolved in 2-propanol (Avantor Performance Materials, Gliwice, Poland) containing 0.04 M hydrochloric acid (Avantor Performance Materials, Gliwice, Poland). The absorbance was measured at 570 nm wavelength using a multiwall plate reader (BioTek, Winooski, VT, USA). The experiment was performed at a minimum of 3 independent replicates. Cell viability was set as a percentage versus vehicle control. IC50 was defined as a concentration of a drug that decreased cell viability by 50% relative to the untreated control.

[1] = MTT assay, normal bronchial epithelium cell line BEAS-2B; format: cell-based; conditions: human
Experimental: (§4) One of the major drawbacks of currently used anticancer drugs is their low selectivity, which often leads to undesired side effects that may be harmful to patients. Overcoming this challenging task requires special attention at the pre-clinical development level. To check whether silyl group incorporation may affect the selectivity of compounds towards cancer cells, MBA and all its new silyl derivatives were tested for their efficacy on noncancerous BEAS-2B and cancerous A549 cells line. […] In contrast, compounds 3a and 3d were more cytotoxic to A549 cells with SI values 6.05 and 1.72, respectively. Strikingly, those two compounds have similar cLogP values 3.08 and 3.22, respectively.
as §2, §3

HT-29 = assay: MTT assay, HT-29; format: cell-based; conditions: Homo sapiens, HT-29, 72 h, read-out: IC50 (cytotoxicity), HT-29
Experimental: as §1, §2, §3

HCT 116 p53−/− = assay: MTT assay, HCT 116 p53−/−; format: cell-based; conditions: Homo sapiens, HCT-116, 72 h, read-out: IC50 (cytotoxicity), HCT 116 p53−/−
Experimental: as §1, §2, §3

cleaved caspase-3 = assay: Human Apoptosis Proteome Profiler array, cleaved caspase-3; format: cell-based; conditions: HCT-116, 1 h exposure, 2 × IC50 (3b at 30.2 μM)
From the text: To explore in detail the molecular mechanism of apoptosis induction by compounds 3b and 3c, we employed Human Apoptosis Proteome Profiler arrays that allow quantification of apoptosis-related biomarkers (Figure 3C). […] Collectively, it can be concluded that silyl derivative 3b promotes cell death in HCT 116 cells by the alteration of expression levels of survivin and activation of caspase-3.
The Human Apoptosis Array Kit (R&D Systems, Abingdon, UK) was used to determine the levels of expression of apoptosis-related proteins. 2.5 × 10^5 HCT 116 wt cells were seeded on 100 mm dishes (Nunc, ThermoFisher, Waltham, MA, USA) and allowed to attach for 24 h. Then the medium was replaced with tested compounds at a concentration corresponding 2 × IC50 value and the cells were incubated in 37 °C. After 60 min the cells were lysed and the lysates were clarified by centrifugation for 30 min at 14,000× g. The total protein concentration was measured using the Protein Quantification Kit-Rapid (Sigma-Aldrich, Taufkirchen, Germany) according to the manufacturer’s instruction. The next steps followed instructions from the manufacturer of the Human Apoptosis Array Kit. The membranes were then scanned in the G:Box trans illuminator (Syngene, Cambridge, UK) and the protein expression levels were quantified by densitometric analysis using ImageJ software.

A549 = assay: MTT assay, NSCLC cell line A549; format: cell-based, human; conditions: for IC50: Homo sapiens, read-out: IC50 (cytotoxicity), A549; for SI: selectivity, A549 versus BEAS-2B
Experimental: as §4, §2, §3

MCF-7 = assay: MTT assay, MCF-7; format: cell-based, human; conditions: Homo sapiens, MCF7, 72 h, read-out: IC50 (cytotoxicity), MCF-7, MTT, 72 h incubation
Experimental: as §1, §2, §3

[2] = BEAS-2B cells (noncancerous bronchial epithelial cells), MTT, 72 h incubation, noncancerous cells, read-out: IC50 (cytotoxicity), BEAS-2B

Row | SMILES | apoptotic (death) cells in total, annexin-V+/PI− plus annexin-V+/PI+ (HCT-116 cells; 20 μM, 24 h, HCT-116) | induction of apoptosis / cell death in HCT-116 (HCT-116 cells; HCT-116, statement in discussion) | IC50 (SJSA-1; SJSA-1, MTT, 72 h incubation) [µM] | IC50 at 72 h [1, 2] [µM] | IC50 (HT-29) [µM] | IC50 (HCT 116 p53−/−) [µM] | cleaved caspase-3 level (caspase-3 activation) (cleaved caspase-3) | IC50 (A549; A549, MTT, 72 h incubation) [µM] | SI (A549) | IC50 (MCF-7) [µM] | proapoptotic activity (HCT-116 cells; 20 μM, 24 h, HCT-116) | IC50 (SJSA-1; SJSA-1, 72 h) [µM] | IC50 at 72 h [1] [µM] | IC50 (A549; A549, 72 h) [µM]
1 | CC(C)[Si](OC1OC(=O)C(Br)=C1Br)(C(C)C)C(C)C (stereo not shown) [Compound 3b, 3,4-Dibromo-5-(triisopropylsilyloxy)-furan-2(5H)-one] | roughly 30% | rapidly triggered cell death | 9.9 ± 1.1 | 12.5 ± 1.4 | 7.3 ± 0.8 | 10.8 ± 1 | significant up-regulation of cleaved caspase-3 | 30.4 ± 4.2 | 0.41 | 7.7 ± 0.9 |  |  |  | 
2 | CC(C)(C)[Si](OC1OC(=O)C(Br)=C1Br)(c1ccccc1)c1ccccc1 (stereo not shown) [Compound 3c, 3,4-Dibromo-5-(tert-butyldiphenylsilyloxy)-furan-2(5H)-one] | 18.5% |  | 14.9 ± 1.5 | 20.3 ± 0.6 | 3.9 ± 0.2 | 4 ± 0.3 | neither the MBA nor compound 3c induced caspase-3 activation | 29.1 ± 1 | 0.70 | 10.9 ± 0.7 |  |  |  | 
3 | O=C1OC(O)C(Br)=C1Br (stereo not shown) [MBA, 3,4-dibromo-5-hydroxyfuran-2(5H)-one, reference compound] |  |  |  |  | 97.1 ± 6.6 | 25.4 ± 6 | neither the MBA nor compound 3c induced caspase-3 activation |  | 0.2 | 142 ± 22.6 | negligible proapoptotic activity | 213 ± 8.8 | 39.7 ± 9.7 | 203 ± 0.3
